Key:
[1] = molecular target: T1, PDE10A (Homo sapiens, UniProt Q9Y233); assay: PDE10A enzymatic assay (PDE10A activity assay kit, BPS Bioscience); type: biochemical; conditions: for Inhibitory activity PDE10A % of PPV: PDE10A inhibition at 1 μM, normalized to PPV
T1 construct: purchased BPS Bioscience
Description: FIGS. 7A-7D show OCR and cellular toxicity data. […] Bars represent mean OCR and PDE10 inhibitory activities from at least 5 (OCR) or 3 (PDE) replicates. All experiments were repeated at least twice. […] Values are mean+−SEM. […]
The structure activity relationship of PPV relative to two assays was assessed: inhibition of cellular OCR by Seahorse, and inhibition of PDE10A by purified enzyme activity in multiwell plate (PDE10A activity assay kit, BPS Bioscience). […] These lead compounds were synthesized from commercial precursors and purified on silica gel column.

[2] = system: mitochondrial complex 1; assay: Seahorse OCR inhibition of PPV derivatives, normalized to PPV; type: cell-based; conditions: Seahorse; for Inhibitory activity OCR % of PPV: OCR inhibition at 10 μM concentration, normalized to PPV
Description: FIGS. 7A-7D show OCR and cellular toxicity data. […]. Bars represent mean OCR and PDE10 inhibitory activities from at least 5 (OCR) or 3 (PDE) replicates. All experiments were repeated at least twice. […] Values are mean+−SEM.
(§1) Seahorse analysis of the OCR. Oxygen consumption rate (OCR) was measured using Seahorse XF96 Flux Analyzer (Agilent Technologies). The cells were seeded to attach overnight, wells were washed with pre-warmed XF Calibrant (Agilent Technologies) and the replaced with unbuffered Assay Medium (pH 7.4, 5 mM glucose, 1 mM L-glutamine). The plates were incubated at 37° C. in a CO2-free incubator for 2 hours prior to assay. For succinate rescue assay, cells were permeabilized using XF Plasma Membrane Permeabilizer Reagent (XF PMP, Agilent Technologies) according to the manufacturer's instructions. The OCR rate was measured in 1× Mitochondrial Assay Solution (MAS) (70 mM sucrose, 220 mM mannitol, 10 mM KH2PO4, 5 mM MgCl2, 2 mM Hepes, 0.6% (w/v) fatty acid-free BSA and 1 mM EGTA; pH 7.4). After baseline oxygenation was established, 1 μM rotenone or 10 μM PPV was injected at time A, followed by 5 mM succinate at time B. Error bars represent standard deviation. For the washout experiment, EO771 cells were seeded overnight, then treated with 10 μM PPV or 1 μM rotenone 3 hours prior to OCR measurement. Media was replaced 1 and 2 hours before measurement and OCR reported.
Because PPV's effect on mitochondrial function is independent of cAMP levels it was reasoned that there are two activities in PPV, one inhibiting complex 1 and one inhibiting PDE10A that may reside in different parts of the molecule. The structure activity relationship of PPV relative to two assays was assessed: inhibition of cellular OCR by Seahorse, and inhibition of PDE10A by purified enzyme activity in multiwell plate (PDE10A activity assay kit, BPS Bioscience). Because PPV can compete with rotenone as complex 1 inhibitors, it was reasoned that they may be binding the same site and therefore the structures would be similar relative to the mitochondrial binding target. […] Because the top was a planar structure similar to that of rotenone, and they compete with each other for the same binding pocket on complex 1 (FIG. 10) the lower portion of the molecule and how it may resemble rotenone were investigated in more detail. It was established that flexible linkage was preferred for mitochondrial activity and bulky adducts to the lower benzene ring may block it (FIG. 7C). […] These lead compounds were synthesized from commercial precursors and purified on silica gel column. Structures were confirmed by ^1H NMR and found to be >95% pure by HPLC.

[3] = system: oxygen consumption (mitochondrial function); assay: Seahorse XF analysis of oxygen consumption in vitro, cell line not stated; type: cell-based
Description: as §1

T1 sequence (Q9Y233 267-1055): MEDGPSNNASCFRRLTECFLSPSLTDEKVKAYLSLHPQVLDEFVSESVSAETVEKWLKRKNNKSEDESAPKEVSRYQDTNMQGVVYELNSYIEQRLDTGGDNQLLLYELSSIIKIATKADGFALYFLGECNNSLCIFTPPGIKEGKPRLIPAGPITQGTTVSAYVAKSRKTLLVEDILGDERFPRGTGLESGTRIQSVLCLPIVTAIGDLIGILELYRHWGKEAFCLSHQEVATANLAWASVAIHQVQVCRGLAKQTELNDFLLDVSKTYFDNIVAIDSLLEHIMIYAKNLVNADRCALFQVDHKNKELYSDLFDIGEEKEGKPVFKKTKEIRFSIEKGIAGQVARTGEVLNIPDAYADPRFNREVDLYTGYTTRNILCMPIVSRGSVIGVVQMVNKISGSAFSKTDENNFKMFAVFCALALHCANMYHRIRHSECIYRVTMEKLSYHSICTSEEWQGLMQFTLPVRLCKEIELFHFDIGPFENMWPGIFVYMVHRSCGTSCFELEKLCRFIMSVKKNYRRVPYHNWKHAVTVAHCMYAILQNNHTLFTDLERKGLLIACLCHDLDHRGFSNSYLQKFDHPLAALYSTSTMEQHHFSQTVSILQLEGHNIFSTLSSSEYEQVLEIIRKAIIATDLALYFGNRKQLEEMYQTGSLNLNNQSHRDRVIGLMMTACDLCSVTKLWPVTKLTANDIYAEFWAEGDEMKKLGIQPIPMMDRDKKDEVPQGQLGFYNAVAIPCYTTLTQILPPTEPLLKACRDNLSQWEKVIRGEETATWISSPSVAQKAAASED

SMILES	Inhibitory activity PDE10A % of PPV [1]	Inhibitory activity OCR % of PPV [2]	activity in PDE10A assay ([1]; purified enzyme)	activity in cellular OCR assay [2]	inhibition of oxygen consumption / mitochondrial function in vitro [3]
COc1cc2c(cc1OC)C(Cc1ccc3c(c1)OCO3)=NCC2	12.77 % of PPV	5.55 % of PPV	–	–	–
COc1cc2ccnc(C(=O)c3ccc4c(c3)OCO4)c2cc1OC	51.12 % of PPV	5.55 % of PPV	–	–	–
COc1cc2ccnc(C(O)c3ccc4c(c3)OCO4)c2cc1OC (stereo not shown)	67.90 % of PPV	12.96 % of PPV	–	–	–
COc1cc2ccnc(Cc3ccc4c(c3)OCO4)c2cc1OC	69.54 % of PPV	11.11 % of PPV	–	–	–
COc1cc2ccnc(C(=O)c3cc(OC)c(OC)c(OC)c3)c2cc1OC	63.39 % of PPV	13.63 % of PPV	–	–	–
COc1cc2ccnc(C(O)c3cc(OC)c(OC)c(OC)c3)c2cc1OC (stereo not shown)	72.86 % of PPV	34.09 % of PPV	–	–	–
COc1cc2ccnc(Cc3cc(OC)c(OC)c(OC)c3)c2cc1OC	37.37 % of PPV	34.09 % of PPV	–	–	–
COc1ccc(Cc2nccc3cc(OC)c(OC)cc23)cc1	79.93 % of PPV	36.36 % of PPV	–	–	–
COc1ccc(C(=O)c2nccc3cc(OC)c(OC)cc23)cc1	65.88 % of PPV	29.55 % of PPV	–	–	–
COc1ccc(C(O)c2nccc3cc(OC)c(OC)cc23)cc1 (stereo not shown)	35.44 % of PPV	70.45 % of PPV	–	–	–
COc1cc2ccnc(C(=O)c3ccccc3)c2cc1OC	26.28 % of PPV	0 % of PPV	–	–	–
COc1cc2ccnc(C(O)c3ccccc3)c2cc1OC (stereo not shown)	23.60 % of PPV	12.07 % of PPV	–	–	–
C=C(C)COc1c(C)cc(C(=O)c2nccc3cc(OC)c(OC)cc23)cc1C	74.38 % of PPV	15.51 % of PPV	–	–	–
C=C(C)COc1c(C)cc(C(O)c2nccc3cc(OC)c(OC)cc23)cc1C (stereo not shown)	73.33 % of PPV	84.42 % of PPV	–	–	–
COc1cc2ccnc(Cc3cc(C)c(O)c(C)c3)c2cc1OC	85.02 % of PPV	5.86 % of PPV	–	–	–
COc1cc2ccnc(C(=O)c3cc(C)c(OC)c(C)c3)c2cc1OC	50.92 % of PPV	0 % of PPV	–	–	–
COc1cc2ccnc(Cc3cc(C)c(OC)c(C)c3)c2cc1OC	64.65 % of PPV	91.18 % of PPV	–	–	–
COc1cc2ccnc(C(O)c3cc(C)c(OC)c(C)c3)c2cc1OC (stereo not shown)	29.18 % of PPV	10.35 % of PPV	–	–	–
COc1cc2ccnc(Cc3cc(C)c(OCC(C)C)c(C)c3)c2cc1OC	29.13 % of PPV	72.88 % of PPV	–	–	–
C=C(C)COc1c(C)cc(Cc2nccc3cc(OC)c(OC)cc23)cc1C	59.69 % of PPV	74.81 % of PPV	–	–	–
COc1cc2c(cc1OC)C(Cc1cc(C)c(OC)c(C)c1)=NCC2	37.27 % of PPV	14.81 % of PPV	–	–	–
COc1cc2c(cc1OC)C(Cc1cc(C)cc(C)c1)=NCC2	40.00 % of PPV	30.09 % of PPV	–	–	–

SMILES	Inhibitory activity PDE10A % of PPV [1]	Inhibitory activity OCR % of PPV [2]	activity in PDE10A assay ([1]; purified enzyme)	activity in cellular OCR assay [2]	inhibition of oxygen consumption / mitochondrial function in vitro [3]
COc1cc2ccnc(C(=O)c3cc(C)cc(C)c3)c2cc1OC	30.52 % of PPV	9.26 % of PPV	–	–	–
COc1cc2ccnc(C(O)c3cc(C)cc(C)c3)c2cc1OC (stereo not shown)	0 % of PPV	23.40 % of PPV	–	–	–
COc1cc2ccnc(Cc3cc(C(F)(F)F)cc(C(F)(F)F)c3)c2cc1OC	10.28 % of PPV	33.4 % of PPV	–	–	–
COc1cc2ccnc(C(=O)c3cc(C(F)(F)F)cc(C(F)(F)F)c3)c2cc1OC	17.69 % of PPV	0 % of PPV	–	–	–
COc1cc2ccnc(C(O)c3cc(C(F)(F)F)cc(C(F)(F)F)c3)c2cc1OC (stereo not shown)	16.58 % of PPV	48.27 % of PPV	–	–	–
COc1cc2ccnc(Cc3ccc4ccccc4c3)c2cc1OC	100 % of PPV	35.99 % of PPV	–	–	–
COc1cc2ccnc(C(=O)c3ccc4ccccc4c3)c2cc1OC	0 % of PPV	4.34 % of PPV	–	–	–
COc1cc2ccnc(C(O)c3ccc4ccccc4c3)c2cc1OC (stereo not shown)	70.84 % of PPV	29.26 % of PPV	–	–	–
COc1cc2ccnc(C(=O)c3cccc4ccccc34)c2cc1OC	0 % of PPV	31.91 % of PPV	–	–	–
COc1cc2ccnc(C(O)c3cccc4ccccc34)c2cc1OC (stereo not shown)	24.24 % of PPV	18 % of PPV	–	–	–
COc1ccc(CCc2nccc3cc(OC)c(OC)cc23)cc1OC	20.16 % of PPV	5.94 % of PPV	–	–	–
COc1ccc(-c2nccc3cc(OC)c(OC)cc23)cc1OC	69.55 % of PPV	3.64 % of PPV	–	–	–
COc1ccc(OCc2nccc3cc(OC)c(OC)cc23)cc1OC	17.18 % of PPV	72.05 % of PPV	–	–	–
COc1cc2ccnc(COc3cccc4ccccc34)c2cc1OC	–	14.19 % of PPV	–	–	–
COc1cc2ccnc(Cc3ccc(C)c(C)c3)c2cc1OC	–	17.43 % of PPV	–	–	–
COc1cc2ccnc(C(=O)c3ccc(C)c(C)c3)c2cc1OC	–	9.64 % of PPV	–	–	–
COc1cc2ccnc(C(O)c3ccc(C)c(C)c3)c2cc1OC (stereo not shown)	–	22.69 % of PPV	–	–	–
COc1cc2ccncc2cc1OC [DMIQ, reference compound]	0 % of PPV	0 % of PPV	inactive	inactive	–
CN(C)C(=N)N=C(N)N [Metformin]	–	–	–	–	effective at inhibiting oxygen consumption
Cc1cccc(CN2CCN(C(c3ccccc3)c3ccc(Cl)cc3)CC2)c1 (stereo not shown) [meclizine]	–	–	–	–	effective at inhibiting oxygen consumption
[H]/N=C(/N)N/C(=N/[H])NCCc1ccccc1 [phenformin]	–	–	–	–	effective at inhibiting oxygen consumption
COc1ccccc1OCC(O)CN1CCN(CC(=O)Nc2c(C)cccc2C)CC1 (stereo not shown) [ranolazine]	–	–	–	–	effective at inhibiting oxygen consumption

— patent US20210163453A1, “DERIVATIVES OF PAPAVERINE THAT ARE EFFECTIVE HYPOXIC TUMOR RADIOSENSITIZERS” (Ohio State Innovation Foundation, priority 2018, published 2021)
